The source of these data is ChEMBL document CHEMBL5604063, “ASAP - DENV-2 NS2B-NS3 protease fluorescence dose response” (2024).

Molecules are shown by their SMILES. Where “and” joins values, the source holds several entries; their conditions need not be identical. Equal entries are not always repeated.

Usually IC50 stands for the midpoint of a concentration-inhibition curve. Low readings indicate inhibition by little substance, high ones a need for much substance.

For the assay, the target named is Genome polyprotein (dengue virus type 2, UniProt P29990). The format is functional, Thailand/16681/1984.
Sequence of Genome polyprotein (P29990 1346-1475 limits assumed): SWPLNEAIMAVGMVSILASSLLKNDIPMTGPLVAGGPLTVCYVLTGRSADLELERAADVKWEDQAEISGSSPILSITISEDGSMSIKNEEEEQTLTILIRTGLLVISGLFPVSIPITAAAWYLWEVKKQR
Sequence of Genome polyprotein (P29990 1476-2093 limits assumed): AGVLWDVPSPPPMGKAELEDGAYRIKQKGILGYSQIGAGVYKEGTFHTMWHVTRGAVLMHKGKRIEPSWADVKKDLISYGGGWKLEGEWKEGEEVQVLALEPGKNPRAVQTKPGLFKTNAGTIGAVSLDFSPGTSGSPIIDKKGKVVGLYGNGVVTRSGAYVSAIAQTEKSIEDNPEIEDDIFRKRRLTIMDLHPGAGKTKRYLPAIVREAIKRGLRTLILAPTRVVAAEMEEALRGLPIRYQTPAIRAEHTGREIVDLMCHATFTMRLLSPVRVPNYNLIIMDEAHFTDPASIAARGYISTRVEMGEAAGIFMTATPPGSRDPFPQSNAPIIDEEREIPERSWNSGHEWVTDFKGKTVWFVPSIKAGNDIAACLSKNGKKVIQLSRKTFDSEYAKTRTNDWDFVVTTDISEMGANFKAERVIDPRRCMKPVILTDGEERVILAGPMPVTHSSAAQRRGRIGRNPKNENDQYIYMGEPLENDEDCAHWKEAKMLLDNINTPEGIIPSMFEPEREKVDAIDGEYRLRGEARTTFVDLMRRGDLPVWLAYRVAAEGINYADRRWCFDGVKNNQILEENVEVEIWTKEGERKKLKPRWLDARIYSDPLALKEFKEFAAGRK

`CCCC[C@H](NC(C)=O)C(=O)N[C@H](C(=O)NCc1ccc(C(N)=O)cc1)c1ccc(OCc2ccccc2)cc1` showed an IC50 greater than 99.5 µM.

In the case of `CNC(=O)c1cc(Cl)ccc1NS(=O)(=O)c1cccc(Oc2ccccc2)c1`, the IC50 is greater than 99.5 µM.

Molecule `O=C(N[C@H]1CCNC1=O)c1cc(Cl)ccc1NS(=O)(=O)c1ccc(Oc2ccccc2Cl)cc1` displayed an IC50 of 87.3 µM.

The molecule `C[C@@H](NC(=O)c1cc(Cl)ccc1NS(=O)(=O)c1ccc(Oc2ccccc2Cl)cc1)[C@H]1CCCO1` yielded an IC50 greater than 99.5 µM.

For the molecule `NCc1cccc(NC(=O)[C@@H](NC(=O)OCc2ccccc2)c2ccc(Br)cc2)c1`, the IC50 is 88.3 µM and 63.1 µM.

Consider `O=C(c1cc(Cl)ccc1NS(=O)(=O)c1ccc(Oc2ccccc2Cl)cc1)N1CC[C@H](CO)C1`, for which the IC50 stood at 91.2 µM.

Molecule `CNC(=O)c1cc(Cl)ccc1NS(=O)(=O)c1ccc(OC2CCCC2)nc1` displayed an IC50 greater than 99.5 µM.

Turning to `O=C(N[C@H]1CCOC1)c1cc(Cl)ccc1NS(=O)(=O)c1ccc(Oc2ccccc2Cl)cc1`, inhibition was half-maximal at 67.4 µM (IC50).

Turning to `Cc1ccc(CNC(=O)c2cc(Cl)ccc2NS(=O)(=O)c2ccc(Oc3ccccc3Cl)cc2)s1`, the IC50 was greater than 99.5 µM.

As to `CC[C@H]1CCN(C(=O)c2cc(Cl)ccc2NS(=O)(=O)c2ccc(Oc3ccccc3Cl)cc2)C1`, the IC50 is greater than 99.5 µM.

In turn, `O=C1C[C@@H](CNC(=O)c2cc(Cl)ccc2NS(=O)(=O)c2ccc(Oc3ccccc3Cl)cc2)CN1` had a half-inhibitory concentration (IC50) of 79.3 µM.

As for `CCCC[C@H](N)C(=O)N[C@H](C(=O)NCc1ccc(C(N)=O)cc1)c1ccc(OCc2ccccc2)cc1`, the IC50 is greater than 99.5 µM.

As to `COC1CN(C(=O)c2cc(Cl)ccc2NS(=O)(=O)c2ccc(Oc3ccccc3Cl)cc2)C1`, the IC50 was greater than 99.5 µM.

Turning to `CCc1ccc(NS(=O)(=O)c2ccc(Oc3ccccc3Cl)cc2)c(C(=O)NC)c1`, the IC50 is greater than 99.5 µM.

On to `CC(C)(C)OC(=O)Cn1ccnc(N2CC[C@@H](CO)C2)c1=O`, for which the IC50 is greater than 99.5 µM.

As for `C[C@H]1COCCN1C(=O)c1cc(Cl)ccc1NS(=O)(=O)c1ccc(Oc2ccccc2Cl)cc1`, the IC50 amounted to 95.6 µM.

Turning to `CNC(=O)c1cc(Cl)c(OC)cc1NS(=O)(=O)c1ccc(Oc2ccccc2Cl)cc1`, the IC50 was found to be 31.9 µM.

Molecule `CCCC[C@H](N)C(=O)N[C@@H](C(=O)NCc1ccc(C(N)=O)cc1)c1ccc(OCc2ccccc2)cc1` gave an IC50 greater than 99.5 µM.

`COC[C@@H](C)CNC(=O)c1cc(Cl)ccc1NS(=O)(=O)c1ccc(Oc2ccccc2Cl)cc1` yielded an IC50 greater than 99.5 µM.

Consider `NC[C@H]1C[C@@H](NC(=O)[C@@H](NC(=O)OCc2ccccc2)c2ccc(OCc3ccccc3)cc2)C1`, for which the IC50 is greater than 99.5 µM.

Take `CC[C@H](C#N)NC(=O)c1cc(Cl)ccc1NS(=O)(=O)c1ccc(Oc2ccccc2Cl)cc1`: inhibition was half-maximal at 42.4 µM (IC50).

For `O=C(NC[C@H]1CCCO1)c1cc(Cl)ccc1NS(=O)(=O)c1ccc(Oc2ccccc2Cl)cc1`, the IC50 is greater than 99.5 µM.

Consider `O=C(NCc1c[nH]nn1)c1cc(Cl)ccc1NS(=O)(=O)c1ccc(Oc2ccccc2Cl)cc1`, for which the IC50 is 29.9 µM.

`CCCN(C)C(=O)c1cc(Cl)ccc1NS(=O)(=O)c1ccc(Oc2ccccc2Cl)cc1` displayed an IC50 of 27.9 µM.

As to `CCCCCNC(=O)c1cc(Cl)ccc1NS(=O)(=O)c1ccc(Oc2ccccc2Cl)cc1`, the IC50 was greater than 99.5 µM.

`O=C(N[C@@H](C(=O)NC1CNC1)c1ccc(OCc2ccccc2)cc1)OCc1ccccc1` returned an IC50 greater than 99.5 µM.

In the case of `NC[C@H]1CCN1C(=O)[C@@H](NC(=O)OCc1ccccc1)c1ccc(OCc2ccccc2)cc1`, the IC50 was greater than 99.5 µM.

For `CC(C)Oc1ccc(S(=O)(=O)Nc2ccc(Cl)cc2C(=O)O)cc1`, the IC50 was greater than 99.5 µM.

With `O=C(NC[C@H]1CCOC1)c1cc(Cl)ccc1NS(=O)(=O)c1ccc(Oc2ccccc2Cl)cc1`, the IC50 was 32.9 µM and 24 µM.

Consider `NCc1cccc(NC(=O)[C@@H](NC(=O)OCc2ccccc2)C2CCCCC2)c1`, for which the IC50 is greater than 99.5 µM.

`NCc1cccc(NC(=O)C[C@@H](NC(=O)OCc2ccccc2)c2ccc(OCc3ccccc3)cc2)c1` came in with an IC50 of 10.4 µM.

Consider `NCc1cccc(NC(=O)[C@@H](NC(=O)OCc2ccccc2)c2ccc(F)cc2F)c1`, for which the IC50 is greater than 99.5 µM.

In turn, `CCn1c(=O)c(N2CC[C@@H](CO)C2)nc2ccccc21` came in with an IC50 greater than 99.5 µM.

Molecule `NCc1cccc(NC(=O)[C@@H](Cc2ccccc2)NC(=O)OCc2ccccc2)c1` came in with an IC50 greater than 99.5 µM.

Molecule `CC(C)c1ccc([C@@H](NC(=O)OCc2ccccc2)C(=O)Nc2cccc(CN)c2)cc1` returned an IC50 greater than 99.5 µM.

With `COc1ccc(S(=O)(=O)Nc2cc(F)c(Cl)cc2C(=O)NCC(C)C)cc1`, it took 97 µM to reach half-maximal inhibition (IC50).

In the case of `C[C@@H](N)c1cccc(NC(=O)[C@@H](NC(=O)OCc2ccccc2)c2ccc(OCc3ccccc3)cc2)c1`, the IC50 is greater than 99.5 µM.

As for `O=C(O)c1cc(Cl)ccc1NS(=O)(=O)c1ccc(Oc2ccccc2)cc1`, 21.7 µM corresponded to half-maximal inhibition (IC50).

Take `O=C(NCc1cocn1)c1cc(Cl)ccc1NS(=O)(=O)c1ccc(Oc2ccccc2Cl)cc1`: half-maximal inhibition (IC50) was put at 24.7 µM.

On to `C#CCn1ccnc(N2CC[C@H](CO)C2)c1=O`, for which the IC50 is greater than 99.5 µM.

For the molecule `C[C@@H](NC(=O)c1cc(Cl)ccc1NS(=O)(=O)c1ccc(Oc2ccccc2Cl)cc1)C1COC1`, the IC50 is 70.2 µM.

In the case of `NCc1cccc(NC(=O)[C@H]2c3ccccc3CCN2C(=O)OCc2ccccc2)c1`, the concentration for half-maximal inhibition (IC50) is greater than 99.5 µM.

Regarding `O=S(=O)(c1ccc(Oc2ccccc2Cl)cc1)n1ccc2cc(Cl)ccc21`, the IC50 was greater than 99.5 µM.

Consider `NCc1cccc(NC(=O)[C@@H](NC(=O)OCc2ccccc2)C(C2CCC2)C2CCC2)c1`, for which the IC50 is > 99.5 µM and 98.9 µM.

`Cc1cc(C(=O)O)c(NS(=O)(=O)c2ccc(Oc3ccccc3)cc2)cc1F`: half-maximal inhibition (IC50) was put at 24.9 µM.

In turn, `CCn1ccnc(-n2cc([C@@H]3NC(=O)NC3=O)c3ccccc32)c1=O` returned an IC50 greater than 99.5 µM.

Turning to `NCc1cccc(NC(=O)[C@@H](N)c2ccc(OCc3ccccc3)cc2)c1`, the IC50 is greater than 99.5 µM.

For the molecule `NCc1cccc(CNC(=O)[C@@H](NC(=O)OCc2ccccc2)c2ccc(OCc3ccccc3)cc2)c1`, the IC50 is 21.7 µM and 12 µM.

Consider `O=C(Nc1ccc(Cl)cc1C(=O)O)c1ccc(Oc2ccccc2Cl)cc1`, for which the midpoint of inhibition, the IC50, lay at 42.5 µM.

As for `CCn1ccnc(N2CC[C@H](c3ccc(F)cc3)C2)c1=O`, the IC50 is greater than 99.5 µM.

`C[C@@H](O)CNC(=O)c1cc(Cl)ccc1NS(=O)(=O)c1ccc(Oc2ccccc2Cl)cc1` registered an IC50 of 56.6 µM.

For `NCc1cccc(NC(=O)[C@@H](NC(=O)OCc2ccccc2)c2cc(F)cc(F)c2)c1`, the IC50 is greater than 99.5 µM.

In the case of `CC(C)CNC(=O)c1cc(Cl)ccc1NS(=O)(=O)c1ccc(Oc2ccccc2Cl)cc1`, the half-maximal inhibitory concentration (IC50) worked out at 13 µM.

Molecule `CC(=O)N[C@@H](C(=O)Nc1cccc(CN)c1)c1ccc(OCc2ccccc2)cc1` showed a half-inhibitory concentration (IC50) greater than 99.5 µM.

`NCc1cccc(NC(=O)[C@H]2c3ccc(OCc4ccccc4)cc3CCN2C(=O)OCc2ccccc2)c1` registered an IC50 greater than 99.5 µM.

`NCc1cccc(NC(=O)[C@@H]2c3ccsc3CCN2C(=O)OCc2ccccc2)c1` showed an IC50 greater than 99.5 µM.

For the molecule `O=C(O)c1cc2c(cc1NS(=O)(=O)c1ccc(Oc3ccccc3Cl)cc1)CCC2`, the 50% inhibitory concentration (IC50) was 7.97 µM.

The molecule `CC(C)(C)Oc1ccc(S(=O)(=O)Nc2ccc(Cl)cc2C(=O)O)cc1` had an IC50 greater than 99.5 µM.

Consider `CCOc1ccc([C@@H](NC(=O)OCc2ccccc2)C(=O)Nc2cccc(CN)c2)cc1`, for which the IC50 was greater than 99.5 µM.

Take `O=C(c1cc(Cl)ccc1NS(=O)(=O)c1ccc(Oc2ccccc2Cl)cc1)N1CCC[C@@H]1CO`: the midpoint of inhibition, the IC50, lay at 62.7 µM.

With `COC(=O)c1cc(Cl)ccc1NS(=O)(=O)c1ccc(Oc2ccccc2Cl)cc1`, the IC50 was greater than 99.5 µM.

For the molecule `O=C(O)[C@H]1CCCC[C@@H]1NS(=O)(=O)c1ccc(Oc2ccccc2Cl)cc1`, the IC50 was greater than 99.5 µM.

Take `NCc1cccc(NC(=O)[C@@H](NC(=O)OCc2ccccc2)c2cccc(F)c2F)c1`: the IC50 was greater than 99.5 µM.

In the case of `O=c1c(N2CC[C@H](CO)C2)nccn1C1CC1`, the IC50 is greater than 99.5 µM.

`O=C(O)[C@@H]1CC2(CC[C@@H]1NS(=O)(=O)c1ccc(Oc3ccccc3Cl)cc1)CC2` showed an IC50 greater than 99.5 µM.

Take `COC(=O)c1cc(Cl)ccc1NS(=O)(=O)c1ccc(Cl)nc1`: the IC50 was greater than 99.5 µM.

In the case of `CN(CCS(N)(=O)=O)C(=O)c1cc(Cl)ccc1NS(=O)(=O)c1ccc(Oc2ccccc2Cl)cc1`, it took 84 µM to reach half-maximal inhibition (IC50).

Regarding `COc1cc(N[C@@H](C(=O)N2CCc3ccc(OC(F)(F)F)cc32)c2ccc(Cl)cc2)cc(OCCCC(=O)O)c1`, half-maximal inhibition (IC50) required 14.2 µM.

`NCc1cccc(NC(=O)[C@@H](NC(=O)OCc2ccccc2)c2cccnc2)c1` showed an IC50 greater than 99.5 µM.

Molecule `COc1ccc(S(=O)(=O)Nc2ccc(Cl)cc2C(=O)O)cc1` displayed an IC50 greater than 99.5 µM.

Molecule `O=C(O)c1cc(Cl)ccc1NS(=O)(=O)c1ccc(Br)cc1` displayed a half-maximal inhibitory concentration (IC50) greater than 99.5 µM.

In the case of `O=C(N[C@@H]1CCc2cn[nH]c2C1)c1cccc2c1NC(=O)[C@]1(CCCN1)C2`, the IC50 was greater than 99.5 µM.

For `O=C(c1cc(Cl)ccc1NS(=O)(=O)c1ccc(Oc2ccccc2Cl)cc1)N1CCC[C@H](O)C1`, the IC50 was 63.6 µM.

In the case of `CN(C(=O)[C@@H](NC(=O)OCc1ccccc1)c1ccc(OCc2ccccc2)cc1)c1cccc(CN)c1`, the IC50 was greater than 99.5 µM.

Consider `O=C(NCc1cnn(CCO)c1)c1cccc2c1NC(=O)[C@]1(CCCN1)C2`, for which the IC50 was greater than 99.5 µM.

`CNC(=O)c1cc(Cl)c(F)cc1NS(=O)(=O)c1ccc(Oc2ccccc2Cl)cc1` registered an IC50 of 14.9 µM.

For `NCc1cccc(NC(=O)[C@@H](NC(=O)OCc2ccccc2)c2ccc(Cl)cc2)c1`, the IC50 is greater than 99.5 µM.

As for `CNC(=O)c1cnncc1NS(=O)(=O)c1ccc(Oc2ccccc2Cl)cc1`, the IC50 was greater than 99.5 µM.

On to `O=C(N[C@@H](C(=O)N[C@H]1CCCNC1)c1ccc(OCc2ccccc2)cc1)OCc1ccccc1`, for which the IC50 was greater than 99.5 µM.

For the molecule `O=C(O)[C@@H]1CCCC[C@@H]1NS(=O)(=O)c1ccc(Oc2ccccc2Cl)cc1`, the IC50 is greater than 99.5 µM.

Regarding `NCc1ccc(C[C@H](NC(=O)OCc2ccccc2)C(=O)Nc2cccc(CN)c2)cc1`, the IC50 was greater than 99.5 µM.

Turning to `COc1ccc(S(=O)(=O)Nc2cc(F)c(Cl)cc2C(=O)O)cc1`, the IC50 is greater than 99.5 µM.

For the molecule `C[C@@H](CS(C)(=O)=O)NC(=O)c1cc(Cl)ccc1NS(=O)(=O)c1ccc(Oc2ccccc2Cl)cc1`, 80.9 µM corresponded to half-maximal inhibition (IC50).

`CCn1ccnc(N(C)[C@@H](CO)Cc2c[nH]c3ccccc23)c1=O` came in with an IC50 greater than 99.5 µM.

`NCc1ccc2c(c1)N(C(=O)[C@@H](NC(=O)OCc1ccccc1)c1ccc(OCc3ccccc3)cc1)CC2` came in with an IC50 greater than 99.5 µM.
